Source: article PMC6523505, “Inhibition of Oncogenic Kinases: An In Vitro Validated Computational Approach Identified Potential Multi-Target Anticancer Compounds” (Biomolecules, 2019)

Tests used:
[1] = test system: HeLa (human epithelial cervical cancer) cell line; experiment: MTT cytotoxicity assay; type: cell-based; settings: after 48 h of treatment, mean ± S.D
From the text: (§1) HeLa (human epithelial cervical cancer, ATCC CCL-2), HepG2 (human epithelial liver cancer, ATCC HB-8065) and Vero (monkey epithelial kidney […], ATCC CCL-81) cell lines were used to examine the selected virtual hit compounds’ anti-cancer activity. All cell lines were generously provided by the late Prof. Dr. M.H. Qazi, University of Lahore, Lahore, Pakistan. The test compounds were purchased via MolPort and cisplatin from Pharmedic (Pvt) Ltd., Lahore, Pakistan. Cell culture media, fetal calf serum (FCS), MTT (3-[[…]]-2,5-diphenyltetrazolium bromide), DMSO, antibiotic/antimycotic and Supplementary Materials were purchased from Thermo Fisher Scientific, Inc, (Waltham, MA, USA).
(§2) Cells were harvested at 80% confluence by treating the medium-free monolayer with trypsin-EDTA. Cell counts were performed with a hemocytometer, and cell viability was determined with trypan blue. The cell suspension was adjusted to a final concentration of […] in DMEM (Dulbecco’s modified Eagle medium) with 10% FCS. Cells were dispensed to tissue culture grade 96-well plates, with each microwell receiving 100 µL, i.e., 7000 cells per microwell. The plate was incubated at 37 °C for 12 h in 5% CO2 incubator. Stock solutions (10 mM) of the test compounds and positive control were prepared in DMSO. Test concentrations were prepared by diluting the stocks with the growth media. Test compound solutions were diluted from 100 µL to a final well volume of 200 µL. MTT reagent was prepared in phosphate-buffered saline (PBS) in a concentration of 5 mg/mL. After 48 h, 25 µL of MTT reagent was added to each microwell, followed by incubation for 5 h. MTT is reduced by metabolically active cells to insoluble purple formazan crystals by mitochondrial enzymes. The reduction of MTT is primarily due to glycolytic activity within the cell, and is dependent upon the presence of NADH and NADPH. The entire contents of each microwell were carefully pipetted out without disturbing the cells on the well floor. In order to solubilize the formazan crystals, 100 µL of DMSO was dispensed to each well. The absorbance was measured with the help of a Bio Rad PR 4100 microplate reader at a wavelength of 570 nm. Serial dilutions of cisplatin were used as a positive control, while the negative controls contained only the reagent, but not any drug. Percentage viability was calculated and dose–response curves were plotted using the percentage viability against the drug/test compound concentration (µM). Results represent mean ±SD of six readings: three determinations of two independent experiments.
(§3) These four compounds were subsequently tested for their cytotoxic effect on different cell lines. Cell viability assays on cancer cell lines HeLa and HepG2 and non-cancerous Vero cell line were performed using the lead compounds (Z21, Z88, F34, AF3) with doses ranging from 50 to 400 µM. Cisplatin was used as a positive control at dose levels of 1 µM, 10 µM, and 20 µM. Dose–response curves of all four inhibitors against the three cell lines show the moderate sensitivity of all cell line toward these inhibitors (Figure 6).

[2] = test system: Vero (monkey epithelial kidney) cell line; experiment: MTT cytotoxicity assay; type: cell-based; settings: after 48 h of treatment, mean ± S.D
From the text: as §1, §2, §3

[3] = test system: HepG2 (human epithelial liver cancer) cell line; experiment: MTT cytotoxicity assay; type: cell-based; settings: after 48 h of treatment, mean ± S.D
From the text: as §1, §2, §3

[4] = test system: BCR-ABL, KIT, LCK, EPHA3, 8, DDR1, 2; settings: FDA-approved kinase inhibitor, against tested cell lines, no reference given; cited from earlier work
cannabinoid CB1 receptor = target: cannabinoid CB1 receptor; parameters: method as in PMID 17027269; settings: cited from earlier work
[5] = test system: VEGF, RET, MET, NTRKB, TIE2, AXL; settings: FDA-approved kinase inhibitor, against tested cell lines, no reference given; cited from earlier work
PDGFR, VEGFR = settings: FDA-approved kinase inhibitor, against tested cell lines, no reference given; cited from earlier work
[6] = test system: TIE2, PDGFR, RET, KIT, B-RAF; settings: FDA-approved kinase inhibitor, against tested cell lines, no reference given; cited from earlier work
[7] = test system: BCR-ABL, SRC, KIT, PDGFR, EPH, CSK; settings: FDA-approved kinase inhibitor, against tested cell lines, no reference given; cited from earlier work
[8] = test system: EGFR, VEGFR, RET, Tie-2, FGFR1; settings: FDA-approved kinase inhibitor, against tested cell lines, no reference given; cited from earlier work

Compound	IC50 [1] [µM]	IC50 [2] [µM]	IC50 [3] [µM]	further results
O=C(CCn1[nH]c(=O)c2ccccc2c1=O)N1CCCC1c1ccc2c(c1)OCCO2 (stereo not shown) [Compound Z88]	218.7 ± 2.04	204.8 ± 1.78	222.1 ± 1.68	
O=C(Nc1ccc(Cl)c(S(=O)(=O)N2CCOCC2)c1)c1cccc2ccccc12 [N-(4-chloro-3-(morpholinosulfonyl)phenyl)-1-naphthamide]				IC50 (cannabinoid CB1 receptor): nanomolar range
COc1cc2nccc(Oc3ccc(NC(=O)C4(C(=O)Nc5ccc(F)cc5)CC4)cc3)c2cc1OC [cabozantinib]				IC50 [5]: < 0.015 µM
O=S(=O)(c1cccc(NCc2cccc3ccccc23)c1)N1CCOCC1 [Compound Z21]	231 ± 2.35	250.2 ± 2.34	246 ± 1.93	
COc1ccc(C(=O)Oc2ccc3c(=O)c(Oc4ccc5ccccc5c4)coc3c2)cc1 [AF3]	176 ± 2.12	209 ± 2.43	188 ± 2.31	
N.N.[Cl][Pt][Cl] [Cisplatin, cisplatin, reference compound]	6.02 ± 1.59	7.99 ± 2.38	6.41 ± 1.54	
Cc1nc(Nc2ncc(C(=O)Nc3c(C)cccc3Cl)s2)cc(N2CCN(CCO)CC2)n1 [dasatinib]				IC50 [7]: < 0.01 µM
Cc1ccc(NC(=O)Cn2cnc3sc(-c4nc(-c5ccccc5)no4)c(C)c3c2=O)cc1Cl [Compound F34]	145 ± 2.06	131 ± 2.3	175.5 ± 1.66	
